In patent US20170029436A1, “NEOSORAPHENS” (Helmoltz-Zentrum für Infektionsforschung GmbH, priority 2014, published 2017):

How the values were obtained:
[1] = test system: genotype 2a (Jc1 chimera) HCVcc virus; experiment: HCV cell-culture (HCVcc) infection assay, Luc-Jc1 luciferase reporter in Huh7/Scr cells; assay type: cell-based; conditions: for EC50: Hepatitis C virus, Huh-7, 72 h, read-out: EC50 (antiviral activity, HCV infection); for SI (Selectivity Index): calculated from EC50 and CC50
Procedure: (§1) To assess the inhibitory effects of Neosoraphens on HCV infection, a HCV cell-culture (HCVcc) system^[1-3] was used. Unless otherwise stated, Huh7/Scr cells (provided by F. Chisari, The Scripps Research Institute, La Jolla, Calif.) which are highly permissive for HCV propagation in vitro were employed. The experiments were performed in the context of genotype 2a (Jc1 chimera^[4]) HCVcc virus. To facilitate the quantification of infection, the bicistronic Jc1 luciferase reporter construct, designated Luc-Jc1^[5], was used. The commercial ACC inhibitor 5-(Tetradecyloxy)-2-furoic acid (TOFA), which has been previously described to inhibit HCV replication^[6], was chosen for comparison of the antiviral activities of the Neosoraphens. The NS3-4A serine protease inhibitor VX-950^[7], a known HCV replication inhibitor, was used as positive control. Briefly, Huh7/Scr cells were seeded at a density of 1.2×10^4 cells/well in 96-well plates. One day later cells were pre-incubated for 1 h at 37° C. with the compounds and then inoculated with the virus and the compounds for 4 h at 37° C. Finally, virus-containing media was replaced by a fresh media-compounds mix. Firefly luciferase activities were assayed 72 h post infection with the Dual-Glo® Luciferase Assay System while cytotoxicity (viability) assays were carried out with the CytoTox-Glo™ Cytotoxicity Assay (both purchased from Promega Corporation, Madison, Wis.), according to manufacturer's instructions, using a plate luminometer FLUOstar OPTIMA (BMG LABTECH, Ortenberg, Germany). Mean relative light units (RLU) were plotted as percentage relative to control infections (solvent without compounds) for both infectivity and cell viability. Infections were carried out in triplicates and measured in duplicates (mean±SEM; n=6). Half maximal effective concentration (EC50) and half maximal cytotoxic concentration 50 (CC50) were estimated by non-linear regression of log inhibitor vs. normalized response and used to calculate the Selectivity Index (SI) value.

[2] = CytoTox-Glo cytotoxicity (viability) assay; assay type: cell-based; conditions: human, Huh7/Scr cells, read-out: CC50 (half maximal cytotoxic concentration)
Procedure: as §1

[3] = test system: Naive mouse CD4+ T cells under Th17 conditions; experiment: In vitro Th17 differentiation of naive CD4+ T cells (IL-17A+ cells by flow cytometry); assay type: cell-based; conditions: 4 days under Th17 conditions, FIG. 1A; for percentage of IL-17A producing T-cells (inhibition of Th17 differentiation): varying concentrations
Procedure: (§2) Single cell suspensions were prepared and pooled from the spleen, mesenteric and peripheral lymph nodes of adult C57BL/6 mice by filtering the crushed organs through a 70 μm cell-strainer. Naïve CD4+CD25^−CD62L+ T cells were subsequently isolated from these suspensions using the CD4+CD25^−CD62L+ T cell isolation Kit II and AutoMACS according to the manufacturer's protocol (Miltenyi Biotec) or by FACS sorting. Purified T cells were cultured under classic Th17 inducing conditions (Bettelli et al., Nature 441(7090): 235-8 (2006)). In detail, the cells were cultured in 96 well flat bottom plates (3×10^5 cells per well), that were precoated with 10 μg/ml anti-CD3 Antibody (clone 145-2C11, BioXcell) in the presence of antibodies against CD28 (1 μg/ml, clone 37.51, BioXcell), IFN-γ (5 μg/ml, clone XMG1.2, BioXcell) and IL-4 (5 μg/ml, clone 11B11, BioXcell) as well as in the presence of TGFβ1 (2 ng/ml, R&D), IL-6 (5 ng/ml, R&D) and IL-1β (50 ng/ml, R&D) in IMDM Medium (supplemented with 10% FCS+500 U PenStrep+50 μM β-Mercaptoethanol). To these cultures, increasing concentrations of ACC Inhibitors Soraphen A or 5-(Tetradecyloxy)-2-furoic acid (TOFA) (both dissolved in DMSO) were added on day 0 and cultured for up to 4 days in an cell culture incubator (37° C. and 5% CO2). As control, cells were cultured in the presence of DMSO only.
(§3) Were indicated, cells from Th17 cultures were restimulated with 100 ng/ml phorbol 12-myristate 13-acetate (Sigma) and 1 μg/ml Inonomycin (Sigma) for 4 h and Brefeldin A (1:1000, Sigma) was added for the last 2 h of restimulation. After restimulation, cells were harvested for flow cytometry. For surface staining: fluorophore-labelled mAbs aginst CD3ε and CD4 were obtained from eBiosciences. For intracellular staining, cells were fixed with Fix/Perm (eBioscience) according to the manufacturer's protocol, and stained intracellular with fluorophore-labelled mAbs directed against IL-17A and Foxp3 (eBiosciences). Cells were run on a flow cytometer (CyAn, Beckman Coulter) and data was analysed on FlowJo (TreeStar) software.
(§4) To isolate naive CD4+CD25^−CD62L+ T cells by FACS-sorting, lymphocyte suspensions were surface-stained with fluorophore-labelled mAbs aginst CD4, CD25 and CD62L (all from ebioscience) and live CD4+CD25^−CD62L+ T cells were sorted to >98% purity using a Moflo (Beckman Coulter) or FACS ARIAII (BD Biosciences) cell sorter.
(§5) Naive mouse CD4^+ T cells were cultured for 4 days under Th17 conditions in the presence of varying concentrations of the compounds of the invention. As control, cells were cultured in the presence of DMSO only (negative control) or ACC inhibitor Soraphen A (positive control). After 4 days, cells were restimulated with PMA/Ionomycin for 4 h and Brefeldin A for 2 h and further analysed by flow cytometry.

[4] = test system: Naive mouse CD4+ T cells under Th17 conditions; experiment: Induction of Foxp3+ Treg differentiation in Th17 cultures (flow cytometry); assay type: cell-based; conditions: 4 days under Th17 conditions, varying concentrations, FIG. 1B
Procedure: as §2, §3, §4, §5

[5] = test system: rotavirus (RV); conditions: Gaunt et al., J Gen Virol 2013; cited from earlier work

In the case of `COC1CCCCC(c2ccccc2)OC(=O)CC2(O)CC(O)C(C)C(O2)C(C)/C=C/C1O` (stereo not shown) [Neosoraphen M462], the EC50 [1] is reported as 7.74 nM, the “SI (Selectivity Index)” value [1] is reported as 1752 and the CC50 at 72 h [2] is reported as 13600 nM. The “percentage of IL-17A producing T-cells (inhibition of Th17 differentiation)” value [3] was “Inhibition of Th17” and the “differentiation of Foxp3+ Treg cells” value [4] was “induction of Treg differentiation”.

For `COC1CCCCC(c2ccccc2)OC(=O)CC2(O)CC(O)C(C)C(O2)C(C)CCC1O` (stereo not shown) [Neosoraphen M464], the EC50 [1] was 46 nM, the “SI (Selectivity Index)” value [1] was 1136 and the CC50 at 72 h [2] was 52200 nM. For the same molecule, the “percentage of IL-17A producing T-cells (inhibition of Th17 differentiation)” value [3] was “Inhibition of Th17” and the “differentiation of Foxp3+ Treg cells” value [4] was “induction of Treg differentiation”.

With `COC1/C=C/C(C)C2OC(O)(CC(=O)OC(c3ccccc3)CCCCC1OC)CC(O)C2C` (stereo not shown) [Neosoraphen M476] the EC50 [1] was 2.09 nM, the “SI (Selectivity Index)” value [1] was 95072 and the CC50 at 72 h [2] was 199000 nM. For the same molecule, the “percentage of IL-17A producing T-cells (inhibition of Th17 differentiation)” value [3] was “Inhibition of Th17” and the “differentiation of Foxp3+ Treg cells” value [4] was “induction of Treg differentiation”.

In the case of `COC1CCCCC(c2ccccc2)OC(=O)CC2(O)CC(O)C(C)C(O2)C(C)CCC1OC` (stereo not shown) [Neosoraphen M478], the EC50 [1] is reported as 1.52 nM, the “SI (Selectivity Index)” value [1] is reported as 64961 and the CC50 at 72 h [2] is reported as 98700 nM. For the same molecule, the “percentage of IL-17A producing T-cells (inhibition of Th17 differentiation)” value [3] was “Inhibition of Th17” and the “differentiation of Foxp3+ Treg cells” value [4] was “induction of Treg differentiation”.

In the case of `COC1CCCCC(c2ccccc2)OC(=O)CC2(O)CC(O)C(C)C(O2)C(C)C(O)CC1O` (stereo not shown) [Neosoraphen M480], the EC50 [1] is reported as 65.7 nM, the “SI (Selectivity Index)” value [1] is reported as 693 and the CC50 at 72 h [2] is reported as 45500 nM.

With `CO[C@H]1CCCC[C@@H](c2ccccc2)OC(=O)[C@@H](C)[C@@]2(O)O[C@H]([C@@H](C)[C@H](O)[C@H]2OC)[C@@H](C)/C=C/[C@H]1OC` [Soraphen A, reference compound] the EC50 ([3]; read-out: EC50 for decrease of IL-17A producing T-cells) was 40 nM, the “percentage of IL-17A producing T-cells (inhibition of Th17 differentiation)” value [3] was “decreases the percentage of IL-17A producing T-cells in a dose dependent manner” and the “differentiation of Foxp3+ Treg cells” value [4] was “induces the reciprocal differentiation of Foxp3+ Treg cells”.

In the case of `CCCCCCCCCCCCCCOc1ccc(C(=O)O)o1` [TOFA, 5-(Tetradecyloxy)-2-furoic acid, reference compound], the EC50 [1] is reported as 1010 nM, the “SI (Selectivity Index)” value [1] is reported as 34 and the CC50 at 72 h [2] is reported as 33900 nM. The “reduction of infectivity of progeny rotavirus” value [5] was 31 fold and the “reduction of viral RNA production” value [5] was 6 fold.

In the case of `CCC[C@H](NC(=O)[C@@H]1[C@H]2CCC[C@H]2CN1C(=O)[C@@H](NC(=O)[C@@H](NC(=O)c1cnccn1)C1CCCCC1)C(C)(C)C)C(=O)C(=O)NC1CC1` [VX-950, reference compound], the EC50 [1] is reported as 18.9 nM, the “SI (Selectivity Index)” value [1] is reported as 4995 and the CC50 at 72 h [2] is reported as 94500 nM.
